From patent publication US20080085879A1, “METHODS OF TREATING ESTROGEN-RESPONSIVE CONDITIONS BY ORPHAN NUCLEAR RECEPTOR ACTIVATION” (University of Pittsburgh - Of the Commonwealth System of …, priority 2006, published 2008)
Entries after “also recorded” stand apart in the source; their conditions may differ.

Tests used:
[1] = system: estrogen sulfotransferase (EST); assay: EST mRNA expression in mouse tissues (Northern blot, real-time PCR) after agonist treatment; format: in vivo; settings: for EST mRNA expression in liver: wild-type mice, compared to control (DMSO)
Method: Transgenic mice, having a mixed background of C57BL/6J and 129/SvImJ, were created expressing activated LXRa in the liver under the control of the fatty acid binding protein (FABP) promoter. (FIG. 1) EST levels in liver cells of the transgenic mice were compared to wild-type mice using Northern blot analysis and real-time PCR, as described in Gong, H. et al. Mol. Endocrinol. 20:279-290 (2006) and Zhou, J. et al. J Biol Chem. 281: 15013-15020 (2006), respectively.
Wild-type mice were treated with LXR agonists TO1317 (T0901317) or 22(R)-hydroxycholesterol (FIG. 1a), and EST levels were compared to DMSO-treated control mice as described above.
LXRα and LXRβ double knockout (LXR DKO) mice were created as described in Peet, D. J. et al., Cell 93:693-704 (1998).

[2] = system: uterine epithelial proliferation; assay: Uterine estrogen response: epithelial proliferation by BrdU labeling in ovariectomized mice; format: in vivo, mouse
[3] = system: uterus; assay: Uterotropic bioassay; format: in vivo, mouse; settings: wild type female mice, E2 5 μg/kg s.c. daily for 3 d
Method: Ovariectomized wild type and VP-LXRα transgenic females were subjected to uterine estrogen response measurements that include epithelial proliferation by BrdU labeling and estrogen responsive gene expression by real-time PCR. Five-week old virgin females were subjected to ovariectomies. Seven days after the surgery, mice were given a single s.c. injection of 17β-estradiol (E2) (25 μg/mouse). 18 h after the E2 injection, mice were given a single i.p. injection of bromodeoxyuridine (BrdU) (60 mg/kg) and sacrificed 2 h after. One uterine horn was harvested for histology and measurement of cell proliferation by BrdU immunostaining (Xie, W., et al., Mol. Endocrinol. 11: 1766-1781 (1997)) and the other was harvested for RNA extraction and gene expression analysis by real-time PCR. In the uterotropic bioassay, 3-week-old virgin female mice received daily s.c. injections of vehicle or E2 (5 μg/kg) for 3 d. Mice were then sacrificed 24 h after the last E2 dose and the uteri were dissected, weighed, and photographed. When necessary, mice were subjected to daily treatment of TO1317 (50 mg/kg, i.p. injection) starting 3 d prior to the E2 treatment and continued until the completion of the experiments.

[4] = system: estrogen-responsive uterine genes (Pgr, c-fos, Igf-1, Txnip); assay: Estrogen-responsive uterine gene expression by real-time PCR in ovariectomized mice; format: in vivo, mouse
[5] = system: CYP3A (PXR target gene); assay: CYP3A expression in mouse liver (Northern blot); format: in vivo
[6] = target: T1, LXRα (Mus musculus, UniProt Q9Z0Y9); assay: mEst promoter luciferase reporter assay in HepG2 cells co-transfected with LXRα; format: cell-based; settings: TO1317 10 μM 24 h
T1 construct: expressed in transfected cells; host or cells: HepG2
T1 sequence (Q9Z0Y9 1-445): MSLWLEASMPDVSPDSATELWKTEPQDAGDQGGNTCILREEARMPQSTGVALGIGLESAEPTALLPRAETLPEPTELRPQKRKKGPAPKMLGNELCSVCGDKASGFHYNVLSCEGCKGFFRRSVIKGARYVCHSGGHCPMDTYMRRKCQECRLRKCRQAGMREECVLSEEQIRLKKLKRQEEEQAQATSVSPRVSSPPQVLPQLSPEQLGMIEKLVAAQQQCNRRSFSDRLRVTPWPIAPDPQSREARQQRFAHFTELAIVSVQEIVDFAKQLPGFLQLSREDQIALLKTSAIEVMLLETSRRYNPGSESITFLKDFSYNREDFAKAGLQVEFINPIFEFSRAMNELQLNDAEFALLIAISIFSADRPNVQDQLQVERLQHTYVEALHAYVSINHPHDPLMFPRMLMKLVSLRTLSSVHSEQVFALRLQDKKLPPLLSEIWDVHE
Text: (§1) The 4.2-kb (−4164 bp to +46 bp) 5′ regulatory sequences of the mEst gene were cloned by PCR using a template of mEst-containing bacterial artificial chromosome (BAC) clone (ID RP24-571N6) from the Children's Hospital Oakland Research Institute BACPAC Resource Center (Oakland, Calif.). Deletion mutants were generated by PCR-mediated mutagenesis. HepG2 cells were transfected with the reporter constructs and LXRα expression vector in 48-well plates as previously described . Gong, H. et al., Mol. Endocrinol. 20:279-290 (2006) When necessary, cells were treated with TO1317 (10 μM) for 24 h prior to luciferase assay. The transfection efficiency was normalized against the β-gal activities from a co-transfected CMX-β gal vector. The hydrodynamic liver transfection was performed as we previously described. Zhou, J. et al. J Biol Chem. 281: 15013-15020 (2006). EMSA were performed using in vitro transcribed and translated proteins as described previously. Saini, S. P. et al., Hepatology 41:497-505 (2005)

[7] = MCF-7/VEGF breast tumor xenograft in ovariectomized nude mice; format: in vivo, mouse
Text: (§2) Ovariectomized nude mice were purchased from Taconic (Germantown, N.Y.). ER-positive and estrogen responsive breast cancer MCF-7 cells were used. The MCF-7 cells were MCF-7/VEGF cells that overexpress the vascular endothelial growth factor (VEGF), rather than parent MCF-7 cells. […] Guo, P. et al., Cancer Res. 63:4684-4691 (2003).
(§3) MCF-7 breast tumors were established in the mammary fat pads of ovariectomized female nude mice as described previously. Briefly, 1×10^7 of MCF-7/VEGF cells were inoculated into the mammary fat pads of 8-week old ovariectomized female nude mice that were implanted with E2 pellets (0.72 mg/60-day release) or placebo pellets (Innovative Research of America, Sarasota, Fla.). The E2-treated mice were randomly divided into two groups, with one group receiving daily treatment of TO1317 (15 mg/kg by gavage) and the other receiving vehicle. The volumes of the tumors were measured using a caliper every five days. Mice were labeled with BrdU 30 min prior to sacrificing. The serum concentrations of E2 were measured using the ACTIVE® ESTRADIOL EIA kit (Diagnostic Systems Laboratories, Webster, Tex.).
(§4) Breast tumors were established as described in Example 4, using MCF-7/VEGF cells.

[8] = system: MCF-7/VEGF cells; assay: as above; format: in vivo, mouse
Text: as §2, §3, §4

[9] = system: mEst 2.1-kb natural promoter; assay: Hydrodynamic liver transfection of Est promoter reporter; format: in vivo
Text: as §1

[10] = target: T2, mouse LXRα (Mus musculus, UniProt Q9Z0Y9); assay: CHIP assay of HA-LXRα recruitment onto the Est promoter in transfected mouse liver; format: in vivo; settings: wild type mouse liver, TO1317 50 mg/kg i.p.
T2 construct: expressed in transfected cells; host or cells: liver of wild type mice (hydrodynamic transfection in vivo)
T2 sequence (Q9Z0Y9 1-445): T1 sequence (Q9Z0Y9 1-445)
Text: Zhou, J. et al. J Biol Chem. 281: 15013-15020 (2006). […] Zhou, J. et al. J Biol Chem. 281: 15013-15020 (2006).

[11] = system: EST; assay: EST mRNA expression in primary human hepatocytes (RT-PCR); format: cell-based; settings: compared to DMSO control
Method: Expression of EST MRNA was measured as described above in human hepatocytes and in human breast cancer line MCF7.

[12] = ovariectomized wild type female mice

CC(C)CC[C@@H](O)[C@@H](C)[C@H]1CC[C@H]2[C@@H]3CC=C4C[C@@H](O)CC[C@]4(C)[C@H]3CC[C@]12C [22(R)-hydroxycholesterol]
EST mRNA expression in liver [1]: up-regulated

C[C@]12CC[C@@H]3c4ccc(O)cc4CC[C@H]3[C@@H]1CC[C@@H]2O [E2, 17β-estradiol]
uterine BrdU labeling ([2]; ovariectomized wild type mice, E2 25 μg/mouse s.c.): increased | uterotropic effect (uterine enlargement, water imbibition) [3]: typical uterine enlargement | mRNA expression of Pgr, c-fos and Igf-1 in uterus [4, 12]: induced | mRNA expression of Txnip in uterus [4, 12]: suppressed

CC(=O)[C@H]1[C@H](C#N)C[C@H]2[C@@H]3CC=C4C[C@@H](O)CC[C@]4(C)[C@H]3CC[C@@]21C [PCN, pregnenolone-16alpha-carbonitrile]
CYP3A expression [5]: induced

O=S(=O)(c1ccccc1)N(CC(F)(F)F)c1ccc(C(O)(C(F)(F)F)C(F)(F)F)cc1 [TO1317]
activation of mutant variant of tk-Est/DR-4 reporter ([6]; LXRα): not | activation of tk-Est/DR-4 reporter ([6]; LXRα): activated | activation of 4.2-kb mEst promoter luciferase reporter ([6]; wild type LXRα): activated | hepatic EST expression in nude mice ([7]; TO1317-treated vs mock-treated nude mice (data not shown)): significantly induced | circulating E2 levels ([7]; tumor bearing mice, TO1317 15 mg/kg by gavage daily): decreased | tumor cell BrdU labeling index ([8]; E2-induced tumors, TO1317 15 mg/kg by gavage daily): decreased | E2-enhanced tumor growth (tumor volume) ([8]; E2 pellets, TO1317 15 mg/kg by gavage daily vs vehicle, 15 mg/kg): inhibited; also recorded: significantly attenuated | TO1317 effect on the E2 response (BrdU labeling) in EST null mice ([2]; EST null mice): abolished | E2 effect on uterine BrdU labeling ([2]; ovariectomized wild type mice, TO1317 50 mg/kg i.p. daily pre-treatment, E2 25 μg/mouse s.c.): compromised | basal proliferation (BrdU labeling) ([2]; treatment alone, in the absence of E2): little effect | activation of 2.1-kb natural Est promoter transfected into mouse liver [9]: activated | TO1317 effect on E2-responsive gene expression in EST null mice ([4]; EST null mice, uterus): abolished | E2 effects on the expression of E2-responsive genes (Pgr, c-fos, Igf-1, Txnip) ([4]; TO1317-treated ovariectomized wild type mice, uterus): abolished | recruitment of HA-LXRα onto the Est promoter (CHIP) [10]: resulted in the recruitment | EST levels in LXR DKO mice ([1]; LXRα and LXRβ double knockout mice, compared with control mice): no increase | EST expression in testis ([1]; testis of male mice): not observed | EST mRNA expression in liver [1]: up-regulated

C[C@@H]1C[C@H]2[C@@H]3CCC4=CC(=O)C=C[C@]4(C)[C@@]3(F)[C@@H](O)C[C@]2(C)[C@@]1(O)C(=O)CO [dexamethasone]
EST mRNA induction in human hepatocytes [11]: increased induction | EST expression in PXR−/− mice ([1]; PXR−/− mice, liver): still induced
